The source of these data is patent publication US20130202646A1, “COMPOSITIONS AND METHODS FOR MODULATING AUTOPHAGY” (SAN DIEGO STATE UNIVERSITY (SDSU) FOUNDATION, priority 2010, published 2013).

Assay [1] deals with HL-1 cells. The experiment in a line: Autophagy scored by intracellular distribution of GFP-LC3 (fluorescence microscopy) in HL-1 cells. It is filed as cell-based, murine. The note with it: for effect on upregulation/induction of autophagy by CCPA: inhibitor pretreatment, then CCPA, normoxic, before ischemia.
Assay [2] has as its system HL-1 cells. The experiment in a line: Cell death by LDH release after simulated ischemia/reperfusion (sI/R) in HL-1 cells. It is filed as cell-based, murine. The following applies: for effect on cytoprotection by CCPA (LDH release): inhibitor plus CCPA, then sI/R (2 hr sI, 3 hr R). On the procedure: Cells of the murine atrial-derived cardiac cell line HL-1^16 were plated in gelatin/fibronectin-coated culture vessels and maintained in Claycomb medium^16 (JRH Biosciences, Lenexa, Kans.) supplemented with 10% fetal bovine serum, 0.1 mm norepinephrine, 2 mm […], 100 U·mL^-1 penicillin, 100 U·mL^-1 streptomycin, and 0.25 μg·mL^-1 amphotericin B. Cells were plated in 14-mm diameter glass bottom microwell dishes (MatTek), and ischemia was introduced by a buffer exchange to ischemia-mimetic solution (in mM: 20deoxyglucose, 125 NaCl, 8 KCl, 1.2 KH2PO4, 1.25 MgSO4, 1.2 CaCl2, 6.25 NaHCO2, 5 sodium lactate, 20 HEPES, pH 6.6) and placing the dishes in hypoxic pouches (GasPakTM EZ, BD Biosciences) equilibrated with 95% N2, 5% CO2. After 2 hr of simulated ischemia, reperfusion was initiated by a buffer exchange to normoxic MKH buffer and incubation at 95% room air, 5% CO2. Controls incubated in normoxic MKH buffer were run in parallel for each condition for periods of time that corresponded with those of the experimental groups. […] The cell cultures were washed with PBS prior to the experimental treatment. Protein content and LDH activity were determined according to El-Ani et al.^20. Briefly, 25 μl supernatants from 35 mm dishes were transferred into wells of a 96-well plate, and the LDH activities were determined with an LDH-L kit (Sigma), according to the manufacturer. The product of the enzyme was measured spectrophotometrically at 30° C. at a wavelength of 340 nm as described previously^21. The results were expressed relative to the control (X-fold) in the same experiment. Each experiment was done in triplicate and was repeated at least three times.

The test system of assay [3] is mCherry-LC3 transgenic mice. The experiment in a line: Induction of autophagy in vivo in hearts of mCherry-LC3 transgenic mice.
Assay [4] concerns neonatal rat cardiomyocytes. The experiment in a line: Autophagosomes (GFP-LC3) in neonatal rat cardiomyocytes. The following applies: 100 nM CCPA, 10 min.
Protocol: To analyze the number of GFP-LC3 puncta in population, cells were inspected at 60× magnification and classified as: (a) cells with predominantly diffuse GFP-LC3 fluorescence; or as (b) cells with numerous GFP-LC3 puncta (>30 dots/cell), representing autophagosomes. At least 200 cells were scored for each condition in three or more independent experiments.
(A) GFP-LC3 transfected HL-1 cells were treated for 120 min in full medium (FM) with various concentrations (0.001-10 μM) of CCPA. (B) GFP-LC3-transfected HL-1 cells were treated with 100 nM CCPA for the indicated time, then fixed with paraformaldehyde and scored by fluorescence microscopy. […] (D) Representative images of neonatal cardiomyocytes under control conditions or 10 min after administration of 100 nM CCPA. (E) Representative images of adult cardiomyocytes under control conditions or 10 min after administration of 100 nM CCPA. (F) Transgenic mice expressing mCherry-LC3 under the αMHC promoter received an i.p. injection of saline or 1 mg/kg CCPA, then were sacrificed 30 min later and heart tissue was processed for fluorescence microscopy.
Assay [5] relates to adult rat cardiomyocytes. The note with it: CCPA 10 min before simulated ischemia (FIG. 7B).
The subject of assay [6] is HL-1 cells. The experiment in a line: Cell death by propidium iodide uptake after sI/R in HL-1 cells. It is filed as cell-based, murine. The following applies: 100 nM CCPA 10 min before sI/R; end of reperfusion. How it is done: Cells were plated in 14-mm diameter glass bottom microwell dishes (MatTek), and ischemia was introduced by a buffer exchange to ischemia-mimetic solution (in mM: 20deoxyglucose, 125 NaCl, 8 KCl, 1.2 KH2PO4, 1.25 MgSO4, 1.2 CaCl2, 6.25 NaHCO2, 5 sodium lactate, 20 HEPES, pH 6.6) and placing the dishes in hypoxic pouches (GasPakTM EZ, BD Biosciences) equilibrated with 95% N2, 5% CO2. After 2 hr of simulated ischemia, reperfusion was initiated by a buffer exchange to normoxic MKH buffer and incubation at 95% room air, 5% CO2. Controls incubated in normoxic MKH buffer were run in parallel for each condition for periods of time that corresponded with those of the experimental groups. Cells were stained immediately after sI/R with propidium iodide (5 μg/ml), which stains nuclei of cells whose plasma membranes have become permeable because of cell damage. The assay was performed according to […] et al.^22. For counterstaining we used Hoechst 33342 (10 μM), which stains the nuclei of all cells.

In assay [7] the test system is adult rat cardiomyocytes. Kind of assay: Autophagy (GFP-LC3 puncta) in adult rat cardiomyocytes. It is filed as cell-based.
In assay [8] the test system is isolated perfused rat hearts. The experiment in a line: Langendorff global ischemia/reperfusion injury in isolated perfused rat hearts (CK release, TTC infarct size, hemodynamics).
Assay [9] concerns isolated perfused rat hearts. Kind of assay: Autophagy in isolated perfused rat hearts (LC3-II/LC3-I Western blot, cadaverine dye binding). (In general: In western blotting, separated proteins are transferred to a membrane and probed.)
The next assay concerns PKC δ. The experiment in a line: PKC delta translocation/redistribution in perfused rat heart and adult rat cardiomyocytes. It is filed as cell-based.
For another assay, the system named is PKC epsilon. The experiment in a line: PKC epsilon translocation in perfused rat heart. It is filed as cell-based. The note with it: after SUL administration. How it is done: Subcellular fractionation. Frozen heart samples were thawed on ice in homogenization buffer containing (in mmol/L): Tris-HCL 20, EDTA 2, EGTA 10, PMSF 1, leupeptin 0.1, E-64 0.01, and sucrose 250). The tissue was then minced and Plytron homogenized (Kinematica, Basel, Switzerland) on ice for 15s for three passes. The homogenates were centrifuged at 600 g for 5 min at 4° C, and the crude supernatants were further centrifuged at 10,000 g for 10 min 4° C. The supernatant, designated as crude cytosol, was divided and one fraction was further centrifuged at 100,000 g for 1 h at 4° C. The resulting supernatant was designated as cytosolic fraction. The pellet was resuspended in homogenization buffer with 1% TritonX-100, incubated on ice for 1 h, then centrifuged at 100,000 g for 1 h at 4° C. The resulting supernatant was designated as the particulate fraction. Samples were stored at −80° C. until use. Western blot analysis. Proteins prepared from rat hearts were quantified by Bio-Rad protein assay. For immunodetection, 50 μg of crude cytosol prepared as above were resolved on SDS-PAGE 10% denaturing gels and transferred to PVDF nylon membranes. The membranes were blocked with 5% nonfat dry milk in TNT buffer (in mM: NaCl 100, Tris·HCl 10 (pH 7.4), and 0.1% Tween-20) for 1 h. […] To quantify the protein, intensity of bands was assessed with Scion Image Software.

Regarding `C/C=C(/C)C(=O)O[C@H]1C(C)=C2[C@H]([C@@H]1OC(=O)CCCCCCC)[C@@](C)(OC(C)=O)C[C@H](OC(=O)CCC)[C@@]1(O)[C@H]2OC(=O)[C@@]1(C)O` [thapsigargin], the “effect on upregulation/induction of autophagy by CCPA” value (“effect on upregulation/induction” below) in the assay with HL-1 cells [1] is reported as “suprressed the induction of autophagy by CCPA”.

Regarding `CCCn1c(=O)c2[nH]c(C3CCCC3)nc2n(CCC)c1=O` [DPCPX], in the assay on HL-1 cells [1], the “effect on upregulation/induction” value was “partially blocked”. Also, the “effect on autophagy in the second window of protection” value in the assay on HL-1 cells [1] (with CCPA 10 min, washout, 20-24 hr later) is given as “blocked the effects of CCPA on autophagy”. Moreover, in the assay with HL-1 cells [2], the “effect on cytoprotection by CCPA (LDH release)” value is “Cytoprotection was abolished”. For the same compound, in the assay on HL-1 cells [2] (with CCPA 10 min, washout, sI/R 20-24 hr later), the “effect on cytoprotection by CCPA in the second window of protection (LDH release)” value was “abolished the cytoprotection by CCPA”.

With `OC[C@H]1O[C@@H](n2cnc3c(NC4CCCC4)nc(Cl)nc32)[C@H](O)[C@@H]1O` [CCPA, 2-chloro-N(6)-cyclopentyladenosine], the “number of mCherry-LC3-labeled structures in left ventricle cryosections” value in assay [3] (CCPA 1 mg/kg i.p., 30 min) is “a large increase in the number of mCherry-LC3-labeled structures”. Moreover, in the assay on HL-1 cells [1] (100 nM 10 min, full medium, with or without Bafilomycin A1 (FIG. 2)), the “percentage of cells with numerous autophagosomes (autophagic flux)” value is “increased the percentage of cells with numerous autophagosomes under both steady-state and cumulative conditions”. Also, the “autophagosomes after sI/R” value with HL-1 cells [1] (100 nM 10 min, then 2 hr sI, 3 hr R) is on record as “Fewer autophagosomes”. Further, the “extent of autophagy induced by starvation” value with HL-1 cells [1] (100 nM 10 min, then starvation in MKH 3 hr) is “no effect”. For the same compound, the “autophagy in delayed preconditioning” value with HL-1 cells [1] (24 hr after 10 min CCPA and washout, normoxia) is “upregulated”. Moreover, the “repair autophagy at reperfusion in delayed preconditioning” value in the assay on HL-1 cells [1] (24 hr after 10 min CCPA, then sI/R) is given as “less”. In the assay on HL-1 cells [1] (CCPA 100 nM), the “persistence of the increase in autophagosomes” value is “at least 300 min” and the “time to increase in the number of autophagosomes” value was ≤ 10 min. For the same compound, in the assay with HL-1 cells [1] (full medium, 0.001-10 μM, 120 min (FIG. 1A)), the induction of autophagy entry is on record as “induced autophagy in a dose-dependent fashion”. Also, the number of autophagosomes entry in [4] is “an increase in the number of autophagosomes”. In addition, the “cytoprotection (LDH release at end of simulated ischemia)” value with adult rat cardiomyocytes [5] is “conferred cytoprotection”. In addition, the “uptake of propidium iodide” value in the assay with HL-1 cells [6] is “diminished”. The LDH release result with HL-1 cells [2] (100 nM CCPA 10 min before sI/R, end of simulated ischemia) was “diminished LDH release”. Further, in the assay on adult rat cardiomyocytes [7] (CCPA 10 min (FIG. 7A)), the “autophagy (percentage of cells with numerous puncta)” value is “induced autophagy”.

As for `CC(=O)OCOC(=O)CN(CC(=O)OCOC(C)=O)c1ccccc1OCCOc1ccccc1N(CC(=O)OCOC(C)=O)CC(=O)OCOC(C)=O` [BAPTA-AM], the “effect on upregulation/induction” value in the assay with HL-1 cells [1] was “suprressed the induction of autophagy by CCPA”.

Take `COc1ccc2c(c[n+](C)c3c4cc5c(cc4ccc23)OCO5)c1OC` [chelerythrine]: in assay [8] (chelerythrine 15 min before ischemia), the “infarct size with or without SUL” value was “no difference in infarct size whether SUL is present or absent”. Further, the “effect on autophagy induced by SUL (cadaverine dye binding)” value in assay [9] (chelerythrine with SUL) is recorded as “suppressed autophagy induced by SUL”. Further, the “effect on SUL-induced increase in cells with numerous autophagosomes” value in the assay on adult rat cardiomyocytes [7] (chelerythrine 5 μM 10 min before 10 μM SUL) is “suppressed”.

`Nc1ccc(S(=O)(=O)Nc2ccnn2-c2ccccc2)cc1` [SUL, sulfaphenazole]: in [8] (10 μM SUL), the contractility before ischemia result is reported as “no effect”. Also, the “infarct size (TTC)” value is “reduced infarct size” in [8] (10 μM SUL from 10 min before ischemia, 30 min ischemia, 120 min reperfusion); “the reduction of infarct size was sustained” in assay [8] (SUL introduced at the onset of reperfusion); “reduces infarct size” in assay [8] (SUL introduced at the onset of reperfusion, listed as sulfaphenazole). Also, the “recovery of contractile function after I/R” value in assay [8] (10 μM SUL, pre-ischemic administration) is listed as “about 90 % of pre-ischemic value”. In assay [8] (10 μM SUL, coronary effluent, first 15 min of reperfusion), the CK release result is given as “attenuated CK release”. In assay [8] (SUL alone, 120 min reperfusion), the infarct size was 5 % of the area at risk. Besides, in the assay with PKC δ (Langendorff-perfused heart, 30 min after SUL infusion), the “PKC delta translocation (cytosol to particulate fraction)” value is recorded as “translocation of PKC delta to the particulate fraction”. The “distribution of PKC delta (immunostaining)” value with PKC δ (adult rat cardiomyocytes, SUL 15 min) is on record as “much more closely aligned with alpha-actinin”. Further, the “BODIPY-TR-cadaverine incorporation into autophagosomes” value in assay [9] (SUL administration (FIG. 15B)) is given as “increased”. For the same compound, the “ratio of LC3-II/I” value in assay [9] (SUL perfusion 30 min) was “doubling”. Moreover, the “number of autophagosomes in hearts” value in assay [3] (SUL 10 mg/kg i.p.) was “significant increase in the number of autophagosomes”. For the same compound, in the assay with adult rat cardiomyocytes [7] (10 μM SUL, 30 min), the “percentage of cells with numerous autophagosomes” value is recorded as “significantly increased”. Also, the PKC epsilon translocation result with PKC epsilon was “did not show a consistent pattern of translocation”.

For the compound `COc1ccc2c(c1)CC[C@@H]1[C@@H]2CC[C@]2(C)[C@@H](NCCCCCCN3C(=O)C=CC3=O)CC[C@@H]12` [U73122], the “autophagy after sI/R (repair autophagy)” value in the assay on HL-1 cells [1] (inhibitor 15 min, then CCPA 10 min, then sI/R) is on record as “an increase in autophagy after sI/R”. Moreover, the “effect on upregulation/induction” value with HL-1 cells [1] is on record as “PLC is required for CCPA stimulation of autophagy before ischemia”. Further, in the assay with HL-1 cells [2], the “effect on cytoprotection by CCPA (LDH release)” value was “an increase in LDH release”.
